Experimental data: patent US20130116215A1, “COMBINATION THERAPIES FOR TREATING NEUROLOGICAL DISORDERS” (priority 2011, published 2013)
Entries after “also recorded” stand apart in the source; their conditions may differ. Like-named read-outs stand apart in the source and are kept apart here.

Key:
[1] = target: T1, Acetylcholinesterase (AChE) (Electrophorus electricus, UniProt O42275); type: biochemical
T1 construct: purchased Invitrogen, Carlsbad, Calif
Procedure: (§1) Current therapy for AD is based on improving the brain synaptic availability of acetylcholine by using acetylcholinesterase inhibitors (AChEls). Therefore, potential drug effect on neuronal dysfunction was studied with an in vitro Acetylcholinesterase (AChE) assay using Amplex Red Acetylcholine/Assay Kit (Invitrogen, Carlsbad, Calif.). The efficacy of ridogrel on memory was obtained running dose-response (10-100 μM). 10 μM Eserine, an anticholinesterase drug, was used as positive control.
as §1, with “diminazene aceturate” for “ridogrel”, “(1-500” for “(10-100”

TAU phosphorylation = test: phospho-tau and Tau ELISA assay in tau-transfected HT4 cells; type: cell-based; conditions: tau-transfected mouse hippocampal-derived HT4 cell line
Procedure: Docetaxel is a clinically well established anti-mitotic chemotherapy medication used mainly for the treatment of breast, ovarian and non-small cell lung cancer which had shown close proximity with Tau motive. Neurofibrillary tangles, a hallmark of AD, are intracellular abnormally aggregates of hyperphosphorylated protein TAU [19]. In that sense, Tau pathology was evaluated on tau-transfected in a mouse hippocampal-derived HT4 cell line using a phospho-tau and Tau ELISA assay (Sigma-aldrich, St Louis, Mo.). The level of TAU phosphorylation is used as an indicator of the degree of TAU pathology.

[2] = test system: cells stably expressing wild-type presenilin-1 an Aβ precursor protein; test: Aβ1-40 and Aβ1-42 ELISA on extracellular media of treated cells; type: cell-based
Text: The putative neurological effects of this drug have been confirmed experimentally using sensitive Aβ1-40 and Aβ1-42 ELISA kits (Wako, Osaka, Japan) on the extracellular media of treated and untreated cells stably expressing wild-type presenilin-1 an Aβ precursor protein. […] Aggregation and fibril formation of Aβ peptides are central events in the pathogenesis of Alzheimer's disease. Previous studies have established the ratio of Aβ1-40 to Aβ1-42 as an important factor in determining the fibrillogenesis, and toxicity of amyloid plaques.

[3] = extracellular media, treated vs untreated cells

T1 sequence (O42275 24-633): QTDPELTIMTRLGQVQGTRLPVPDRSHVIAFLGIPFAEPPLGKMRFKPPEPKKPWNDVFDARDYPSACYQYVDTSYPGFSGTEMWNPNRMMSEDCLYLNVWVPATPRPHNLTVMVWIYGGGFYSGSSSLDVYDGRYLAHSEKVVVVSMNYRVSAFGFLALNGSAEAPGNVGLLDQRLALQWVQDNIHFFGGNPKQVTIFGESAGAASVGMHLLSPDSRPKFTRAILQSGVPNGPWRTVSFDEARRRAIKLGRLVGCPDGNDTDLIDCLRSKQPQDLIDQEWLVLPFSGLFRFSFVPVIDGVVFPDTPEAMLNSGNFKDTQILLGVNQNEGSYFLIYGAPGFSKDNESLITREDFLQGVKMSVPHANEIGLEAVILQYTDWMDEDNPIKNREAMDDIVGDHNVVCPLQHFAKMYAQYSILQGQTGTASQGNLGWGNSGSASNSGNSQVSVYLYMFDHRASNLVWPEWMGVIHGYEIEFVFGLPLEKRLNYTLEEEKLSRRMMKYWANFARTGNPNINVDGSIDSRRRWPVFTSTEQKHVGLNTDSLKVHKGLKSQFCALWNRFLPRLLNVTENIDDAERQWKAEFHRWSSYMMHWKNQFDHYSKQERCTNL

N=C(N)c1ccc(/N=N/Nc2ccc(C(=N)N)cc2)cc1 [Diminazene Aceturate, Diminazene aceturate]
inhibition of AChE ([1]; dose-response 1-500 μM, inhibition with dose 500 to 10 μM): dose-dependent inhibition

CC(=O)O[C@@]12CO[C@@H]1C[C@H](O)[C@@]1(C)C(=O)[C@H](O)C3=C(C)[C@@H](OC(=O)[C@H](O)[C@@H](NC(=O)OC(C)(C)C)c4ccccc4)C[C@@](O)([C@@H](OC(=O)c4ccccc4)[C@H]21)C3(C)C [Docetaxel]
TAU phosphorylation (pTAU/TAU ratio) (TAU phosphorylation): significantly reduces
TAU phosphorylation (pTAU/TAU ratio) (TAU phosphorylation; listed as docetaxel): reduces TAU phosphorylation

Cc1c(OCC(F)(F)F)ccnc1C[S+]([O-])c1nc2ccccc2[nH]1 (stereo not shown) [Lansoprazole]
Aβ1-40 peptide production [2, 3]: significantly increases
Aβ1-42 peptide production [2, 3]: significantly increase
Aβ1-40/Aβ1-42 ratio ([2]; treated cells): significant reduction; also recorded: reduces

O=C(O)CCCCO/N=C(/c1cccnc1)c1cccc(C(F)(F)F)c1 [Ridogrel]
inhibition of AChE ([1]; dose-response 10-100 μM, inhibition with dose 100 to 25 μM): dose-dependent inhibition
